Tested on: Streptomyces and other bacteria
Experiment: Toxicity of frenolicins to bacteria (comparative statement, no method described)
Type: cell-based
Details: relative ranking among the frenolicins; qualitative only

Compound	toxic to Streptomyces and other bacteria
CCC[C@H]1O[C@H](CC(=O)O)CC2=C1C(=O)c1c(O)cccc1C2=O [deoxyfrenolicin]	less toxic
frenolicin B [reference compound]	most toxic
frenolicin epoxide	even less so
